From US20050261288A1, “Tetracyclic lactam derivatives and uses thereof” (priority 2004, published 2005)

Target: T1, PARP (Mus musculus, UniProt P11103)
T1 construct: endogenous in cells; host or cells: RAW mouse macrophages
Assay: PARP activation in cultured murine macrophages, whole-cell macrophage assay (peroxynitrite-induced)
Format: cell-based
Details: for IC50: PARP activation in cultured murine macrophages
Protocol: Without being bound by theory, Applicants believe that Tetracyclic Lactam Derivatives that inhibit PARP are useful for treating or preventing a Condition.
In a typical procedure, RAW mouse macrophages are cultured in DMEM medium with high glucose and supplemented with 10% fetal bovine serum. Cells are used at 80% confluence in 12-well plates. Cells are pretreated with various concentrations (100 nM-1 μM) of a Tetracyclic Lactam Derivative for 10 min. Peroxynitrite, a prototypical oxidant which induces DNA single strand breakage, is used to induce PARP activation. In a typical assay, peroxynitrite is diluted in phosphate buffered saline (PBS) (pH 11.0) and added to the cells in a bolus of 50 μL. Cells are then incubated for 20 minutes. Peroxynitrite is decomposed by incubation for 30 min at pH 7.0, and used as a control. After the 20 minute incubation period, the cells are spun, the medium is aspirated and the cells are resuspended in 0.5 mL assay buffer (56 mM HEPES pH 7:5, 28 mM KCl, 28 mM NaCl, 2 mM MgCl2, 0.01% w/v digitonin and 0.125 μM NAD^+ and 0.5 μCi/ml ^3H-NAD^+). Following incubation in assay buffer, (10 min at 37° C.), PARP activity can be measured as follows: 200 μL ice cold 50% w/v TCA is added and the samples are incubated for 4 h at 4° C. Samples are then spun (10 min @ 10,000 g) and the resulting pellets are washed twice with ice cold 5% w/v TCA and solubilized overnight in 250 μL 2% w/v SDS/0.1 N NaOH at 37° C. The contents of the tubes are added to 6.5 mL ScintiSafe Plus scintillation liquid (Fisher Scientific) and radioactivity is determined using a liquid scintillation counter (Wallac, Gaithersburg, Md.).
Examples of the inhibitory effects of illustrative Tetracyclic Lactam Derivatives in the whole-cell macrophage assay are illustrated in Tables 3 and 4 below.

T1 sequence (P11103 whole entry): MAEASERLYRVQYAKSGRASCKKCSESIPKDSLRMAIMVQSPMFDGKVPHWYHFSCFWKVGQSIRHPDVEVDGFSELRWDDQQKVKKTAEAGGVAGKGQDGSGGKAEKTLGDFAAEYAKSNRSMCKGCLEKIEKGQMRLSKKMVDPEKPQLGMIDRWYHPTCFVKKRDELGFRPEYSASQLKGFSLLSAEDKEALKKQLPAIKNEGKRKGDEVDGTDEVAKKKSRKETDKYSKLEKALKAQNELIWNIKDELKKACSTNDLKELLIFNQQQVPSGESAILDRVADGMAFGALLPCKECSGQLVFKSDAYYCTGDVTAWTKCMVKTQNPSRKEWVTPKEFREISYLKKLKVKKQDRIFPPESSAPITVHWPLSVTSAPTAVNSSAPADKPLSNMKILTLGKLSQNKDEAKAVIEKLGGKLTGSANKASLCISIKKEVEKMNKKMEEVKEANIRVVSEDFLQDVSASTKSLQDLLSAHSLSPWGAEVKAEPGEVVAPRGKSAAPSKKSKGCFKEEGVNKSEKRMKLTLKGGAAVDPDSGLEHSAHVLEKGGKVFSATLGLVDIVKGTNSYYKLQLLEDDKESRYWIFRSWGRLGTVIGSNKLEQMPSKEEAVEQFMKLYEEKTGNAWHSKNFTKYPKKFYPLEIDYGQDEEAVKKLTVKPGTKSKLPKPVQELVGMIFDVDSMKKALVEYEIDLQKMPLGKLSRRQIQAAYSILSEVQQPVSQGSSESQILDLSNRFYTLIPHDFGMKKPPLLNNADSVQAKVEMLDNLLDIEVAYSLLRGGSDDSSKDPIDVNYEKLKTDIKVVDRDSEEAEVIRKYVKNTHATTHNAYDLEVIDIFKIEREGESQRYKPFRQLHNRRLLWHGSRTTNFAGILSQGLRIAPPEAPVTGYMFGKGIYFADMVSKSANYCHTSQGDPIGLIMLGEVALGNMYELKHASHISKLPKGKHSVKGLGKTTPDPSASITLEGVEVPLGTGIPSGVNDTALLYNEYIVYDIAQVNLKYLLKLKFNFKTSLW

Compound | IC50 [µM] | inhibition at 0.1 µM (0.1 μM, RAW mouse macrophages, peroxynitrite-induced PARP activation) [%] | inhibition at 0.3 µM (0.3 μM, RAW mouse macrophages, peroxynitrite-induced PARP activation) [%] | inhibition at 1 µM (1 μM, RAW mouse macrophages, peroxynitrite-induced PARP activation) [%] | inhibition at 3 µM (3 μM, RAW mouse macrophages, peroxynitrite-induced PARP activation) [%]
CCCCOC(=O)n1c2ccccc2c2[nH]c(=O)c3ccccc3c21 [Compound 109, N-BUTYL-5-OXO-5,6-DIHYDRO-INDOLO[3,2-C]ISOQUINOLINE-11-CARBOXYLATE] | 10 to 100 | – | – | – | –
CCOC(=O)n1c2ccccc2c2[nH]c(=O)c3ccccc3c21 [Compound 63, ETHYL-5-OXO-5,6-DIRYDRO-INDOLO[3,2-C]ISOQUINOLINE-11-CARBOXYLATE] | 1 to 10 | 33 | 43 | 50 | 65
CC(C)OC(=O)n1c2ccccc2c2[nH]c(=O)c3ccccc3c21 [Compound 108, ISO-PROPYL-5-OXO-5,6-DIHYDRO-INDOLO[3,2-C]ISOQUINOLINE-11-CARBOXYLATE] | 10 to 100 | – | – | – | –
COC(=O)n1c2ccccc2c2[nH]c(=O)c3ccccc3c21 [Compound 61, METHYL-5-OXO-5,6-DIHYDRO-INDOLO[3,2-C]ISOQUINOLINE-11-CARBOXYLATE] | 10 to 100 | – | – | – | –
CCCOC(=O)n1c2ccccc2c2[nH]c(=O)c3ccccc3c21 [Compound 107, N-PROPYL-5-OXO-5,6-DIHYDRO-INDOLO[3,2-C]ISOQUINOLINE-11-CARBOXYLATE] | 10 to 100 | – | – | – | –
